Literature values, collected in patent publication US10870689B2, “ApoM-Fc fusion proteins, complexes thereof with sphingosine 1-phosphate (S1P), and methods for treating vascular and non-vascular diseases” (Children's Medical Center Corporation, priority 2016, dated 2020).

Biological target: T1, S1P1 (Homo sapiens, UniProt P21453)
T1 construct: expressed in transfected cells
Settings: Hofmann et al. 2009; Tsukada et al. 2007

T1 sequence (P21453 whole entry, species assumed): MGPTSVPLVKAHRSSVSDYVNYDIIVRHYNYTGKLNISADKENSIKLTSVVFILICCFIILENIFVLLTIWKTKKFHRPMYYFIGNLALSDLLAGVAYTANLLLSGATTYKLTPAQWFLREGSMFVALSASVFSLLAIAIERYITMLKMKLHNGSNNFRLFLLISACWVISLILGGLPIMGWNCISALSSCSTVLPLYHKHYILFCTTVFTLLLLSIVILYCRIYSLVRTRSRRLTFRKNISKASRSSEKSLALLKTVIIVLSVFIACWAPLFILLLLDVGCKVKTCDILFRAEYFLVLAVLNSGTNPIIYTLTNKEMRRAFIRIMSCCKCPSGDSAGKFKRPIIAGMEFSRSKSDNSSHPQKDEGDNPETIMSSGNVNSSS

Q: Which “effect on cardiac rhythm” value does the source give for `FC(F)(F)c1cccc(-c2noc(-c3cc(-c4ccccc4)c(C(F)(F)F)s3)n2)c1` [SEW2871] here?
A: induced abnormal cardiac rhythm
